Assay results from PubChem BioAssay (NCI).
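Protocol summary: plate cells (96-well), add compound at 5 concentrations, incubate 48 h, interpolate endpoints linearly. GI50 marks 50% less growth. TGI is the concentration that stops growth completely.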

Assays:
Experiment in all cases: NCI tumour cell line growth inhibition, 48 h
[1] = tested on: SK-OV-3 ovarian
[2] = tested on: CAKI-1 renal
[3] = tested on: UO-31 renal
[4] = tested on: K-562 leukemia
[5] = tested on: HCT-116 colon
[6] = tested on: MCF7 breast
[7] = tested on: OVCAR-3 ovarian
[8] = tested on: 786-0 renal
[9] = tested on: RXF 393 renal
[10] = tested on: OVCAR-5 ovarian
[11] = tested on: DU-145 prostate
[12] = tested on: MALME-3M melanoma
[13] = tested on: HS 578T breast
[14] = tested on: MDA-MB-468 breast
[15] = tested on: OVCAR-4 ovarian
[16] = tested on: NCI-H23 lung
[17] = tested on: HCT-15 colon
[18] = tested on: HL-60(TB) leukemia
[19] = tested on: A549 NSCLC
[20] = tested on: TK-10 renal
[21] = tested on: NCI-H226 lung
[22] = tested on: T-47D breast
[23] = tested on: UACC-257 melanoma
[24] = tested on: IGROV1 ovarian
[25] = tested on: HOP-62 NSCLC
[26] = tested on: OVCAR-8 ovarian
[27] = tested on: UACC-62 melanoma
[28] = tested on: NCI-H460 lung
[29] = tested on: SNB-19 CNS
[30] = tested on: HT29 colon
[31] = tested on: MOLT-4 leukemia
[32] = tested on: SN12C renal
[33] = tested on: SW-620 colon
[34] = tested on: SK-MEL-28 melanoma
[35] = tested on: KM12 colon
[36] = tested on: RPMI-8226 leukemia
[37] = tested on: NCI-H522 lung
[38] = tested on: EKVX NSCLC
[39] = tested on: SK-MEL-2 melanoma
[40] = tested on: SR leukemia
[41] = tested on: NCI/ADR-RES ovarian
[42] = tested on: HOP-92 NSCLC
[43] = tested on: HCC-2998 colon
[44] = tested on: A498 renal
[45] = tested on: SNB-75 CNS
[46] = tested on: SF-295 CNS
[47] = tested on: SK-MEL-5 melanoma
[48] = tested on: SF-539 CNS
[49] = tested on: SF-268 CNS
[50] = tested on: COLO 205 colon
[51] = tested on: ACHN renal
[52] = tested on: MDA-MB-231 breast
[53] = tested on: BT-549 breast
[54] = tested on: M14 melanoma
[55] = tested on: U251 CNS
[56] = tested on: PC-3 prostate
[57] = tested on: CCRF-CEM leukemia
[58] = tested on: LOX IMVI melanoma
[59] = tested on: MDA-MB-435

COc1ccc(CCC2NCCc3c(Br)c4c(c(OC)c32)OCO4)cc1 (stereo not drawn)
GI50 [1]: 10.5 µM | TGI [1]: > 55.8 µM | GI50 [2]: 3.08 µM | TGI [2]: > 55.8 µM | GI50 [3]: 7.85 µM | TGI [3]: > 55.8 µM | GI50 [4]: 1.84 µM | TGI [4]: > 55.8 µM | GI50 [5]: 1.84 µM | TGI [5]: > 55.8 µM | GI50 [6]: 7.13 µM | TGI [6]: 26.6 µM | GI50 [7]: 3.37 µM | TGI [7]: 29.8 µM | GI50 [8]: 9.75 µM | TGI [8]: > 55.8 µM | GI50 [9]: 7.57 µM | TGI [9]: 39.4 µM | GI50 [10]: 3.28 µM | TGI [10]: 36.8 µM | GI50 [11]: 15.9 µM | TGI [11]: > 55.8 µM | GI50 [12]: 4.98 µM | TGI [12]: 13.5 µM | GI50 [13]: 6.63 µM | TGI [13]: 28.3 µM | GI50 [14]: 4.45 µM | TGI [14]: 15.9 µM | GI50 [15]: 12.6 µM | TGI [15]: > 55.8 µM | GI50 [16]: 6.79 µM | TGI [16]: 38.1 µM | GI50 [17]: 3.53 µM | TGI [17]: > 55.8 µM | GI50 [18]: 2.44 µM | TGI [18]: 17.7 µM | GI50 [19]: 4.01 µM | TGI [19]: > 55.8 µM | GI50 [20]: 11.8 µM | TGI [20]: > 55.8 µM | GI50 [21]: 6.71 µM | TGI [21]: > 55.8 µM | GI50 [22]: 4.78 µM | TGI [22]: 27.3 µM | GI50 [23]: 9.2 µM | TGI [23]: > 55.8 µM | GI50 [24]: 3.92 µM | TGI [24]: 44.6 µM | GI50 [25]: 2.68 µM | TGI [25]: > 55.8 µM | GI50 [26]: 11.1 µM | TGI [26]: > 55.8 µM | GI50 [27]: 1.34 µM | TGI [27]: 3.98 µM | GI50 [28]: 2.77 µM | TGI [28]: 21.7 µM | GI50 [29]: 11.1 µM | TGI [29]: > 55.8 µM | GI50 [30]: 1.77 µM | TGI [30]: 8.33 µM | GI50 [31]: 4.46 µM | TGI [31]: > 55.8 µM | GI50 [32]: 5.1 µM | TGI [32]: 42.7 µM | GI50 [33]: 1.76 µM | TGI [33]: 9.77 µM | GI50 [34]: 2.5 µM | TGI [34]: 12.6 µM | GI50 [35]: 2.82 µM | TGI [35]: > 55.8 µM | GI50 [36]: 2.23 µM | TGI [36]: 15.9 µM | GI50 [37]: 1.72 µM | TGI [37]: 10.1 µM | GI50 [38]: 11.5 µM | TGI [38]: > 55.8 µM | GI50 [39]: 2.99 µM | TGI [39]: 16.5 µM | GI50 [40]: 2.33 µM | TGI [40]: 31.2 µM | GI50 [41]: 6.99 µM | TGI [41]: 28.4 µM | GI50 [42]: 2.69 µM | TGI [42]: 18.2 µM | GI50 [43]: 6.82 µM | TGI [43]: 15.5 µM | GI50 [44]: 29 µM | TGI [44]: > 55.8 µM | GI50 [45]: 7.93 µM | TGI [45]: 35.3 µM | GI50 [46]: 2.36 µM | TGI [46]: 41.6 µM | GI50 [47]: 3.64 µM | TGI [47]: 11.9 µM | GI50 [48]: 6 µM | TGI [48]: 14.3 µM | GI50 [49]: 12.5 µM | TGI [49]: > 55.8 µM | GI50 [50]: 2.84 µM | TGI [50]: 11.8 µM | GI50 [51]: 8.23 µM | TGI [51]: > 55.8 µM | GI50 [52]: 2.08 µM | TGI [52]: 15.5 µM | GI50 [53]: 7.45 µM | TGI [53]: 25.5 µM | GI50 [54]: 2.05 µM | TGI [54]: > 55.8 µM | GI50 [55]: 10.7 µM | TGI [55]: > 55.8 µM | GI50 [56]: 6.16 µM | TGI [56]: > 55.8 µM | GI50 [57]: 6.76 µM | TGI [57]: 37.3 µM | GI50 [58]: 6.31 µM | TGI [58]: 14.5 µM

CCN1CCN(Cc2ccc(C(=O)Nc3cccc(Nc4ccc5c(OC)cccc5n4)c3)cc2C(F)(F)F)CC1
GI50 [1]: 12.6 µM | TGI [1]: 27.2 µM | GI50 [2]: 1.46 µM | TGI [2]: 3.19 µM | GI50 [3]: 2.33 µM | TGI [3]: 9.27 µM | GI50 [4]: 2.11 µM | TGI [4]: 86.8 µM | GI50 [5]: 1.45 µM | TGI [5]: 2.64 µM | GI50 [6]: 1.5 µM | TGI [6]: 3.5 µM | GI50 [7]: 1.8 µM | TGI [7]: 4.58 µM | GI50 [9]: 1.63 µM | TGI [9]: 5 µM | GI50 [10]: 3.28 µM | TGI [10]: 12.7 µM | GI50 [11]: 2.55 µM | TGI [11]: 9.25 µM | GI50 [12]: 1.44 µM | TGI [12]: 2.63 µM | GI50 [13]: 1.96 µM | TGI [13]: 6.98 µM | GI50 [14]: 1.6 µM | TGI [14]: 4.53 µM | GI50 [15]: 2.89 µM | TGI [15]: 13 µM | GI50 [16]: 2.37 µM | TGI [16]: 7.03 µM | GI50 [17]: 1.58 µM | TGI [17]: 3.29 µM | GI50 [18]: 1.57 µM | TGI [18]: 4.84 µM | GI50 [19]: 2.5 µM | TGI [19]: 11.4 µM | GI50 [20]: 8.67 µM | TGI [20]: 22.1 µM | GI50 [21]: 5.52 µM | TGI [21]: 18.3 µM | GI50 [22]: 2.11 µM | TGI [22]: 8.14 µM | GI50 [23]: 1.51 µM | TGI [23]: 2.85 µM | GI50 [24]: 3.09 µM | TGI [24]: 11.2 µM | GI50 [25]: 3.67 µM | TGI [25]: 17.6 µM | GI50 [26]: 6.78 µM | TGI [26]: 18.4 µM | GI50 [27]: 1.53 µM | TGI [27]: 2.83 µM | GI50 [28]: 1.47 µM | TGI [28]: 2.8 µM | GI50 [29]: 1.65 µM | TGI [29]: 3.62 µM | GI50 [31]: 1.23 µM | TGI [31]: 5.05 µM | GI50 [32]: 3.62 µM | TGI [32]: 14.8 µM | GI50 [33]: 1.45 µM | TGI [33]: 2.73 µM | GI50 [34]: 1.56 µM | TGI [34]: 2.87 µM | GI50 [35]: 2.2 µM | TGI [35]: 5.62 µM | GI50 [36]: 2.24 µM | TGI [36]: 6.67 µM | GI50 [37]: 1.7 µM | TGI [37]: 3.3 µM | GI50 [38]: 4.06 µM | TGI [38]: 15.3 µM | GI50 [39]: 10.7 µM | TGI [39]: 23.8 µM | GI50 [40]: 1.87 µM | TGI [40]: 4.67 µM | GI50 [41]: 2.28 µM | TGI [41]: 9.03 µM | GI50 [42]: 1.58 µM | TGI [42]: 5.27 µM | GI50 [43]: 1.59 µM | TGI [43]: 2.89 µM | GI50 [44]: 11.8 µM | TGI [44]: 24.9 µM | GI50 [45]: 1.2 µM | TGI [45]: 8.39 µM | GI50 [46]: 1.52 µM | TGI [46]: 2.97 µM | GI50 [47]: 1.45 µM | TGI [47]: 2.78 µM | GI50 [48]: 1.37 µM | TGI [48]: 2.54 µM | GI50 [49]: 2.17 µM | TGI [49]: 9.91 µM | GI50 [51]: 1.85 µM | TGI [51]: 4.32 µM | GI50 [52]: 1.54 µM | TGI [52]: 3.05 µM | GI50 [53]: 5.35 µM | TGI [53]: 17.4 µM | GI50 [54]: 1.47 µM | TGI [54]: 2.72 µM | GI50 [59]: 1.36 µM | TGI [59]: 2.82 µM | GI50 [55]: 1.69 µM | TGI [55]: 3.47 µM | GI50 [56]: 2.14 µM | TGI [56]: 6.26 µM | GI50 [57]: 1.97 µM | TGI [57]: 5.38 µM | GI50 [58]: 1.45 µM | TGI [58]: 2.65 µM
